Data from patent US20220257774A1, “AROMATIC AMINE AR AHD BET TARGETING PROTEIN DEGRADATION CHIMERA COMPOUND AND USE” (HINOVA PHARMACEUTICALS INC., priority 2019, published 2022).

system: LNCaP/AR cells; test: Inhibition of the proliferation of LNCap/AR cells (CCK-8); assay type: cell-based; conditions: 144 h; LNCaP/AR cells, 6 days culture, CCK-8; read-out: LNCap/AR IC50
How it was run: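 Proliferation was read by CCK-8 (OD 450 nm, 1 h) after six days of compound exposure. Cells were seeded at 1000 per well overnight, then dosed in duplicate over nine 3-fold steps with a top final concentration of 10 μM in 0.1% DMSO; IC50 was fitted from inhibition curves.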

SMILES	IC50 [nM]
CC(=O)O[C@@H]1C[C@@H](C(=O)N[C@@H](C)c2ccc(-c3scnc3C)cc2)N(C(=O)[C@@H](NC(=O)COCCCCCN(c2ccc(-n3ccnc3)cc2)c2cc3onc(C)c3cc2C)C(C)(C)C)C1 [Compound 18, (3R,5S)-1-((S)-2-(2-((5-((4-(1H-imidazol-1-yl)phenyl)(3,5-dimethylbenzo[d]isoxazol-6-yl)amino)pentyl)oxy)acetamido)-3,3-dimethylbutyryl)-5-((S)-1-(4-(4-methylthiazol-5-yl)phenyl)ethyl)carbamoyl)pyrrolidine-3-yl acetate]	> 2000
Cc1ccc(-c2c(C)noc2C)cc1N(CCCCCOCC(=O)N[C@H](C(=O)N1C[C@H](O)C[C@H]1C(=O)N[C@@H](C)c1ccc(-c2scnc2C)cc1)C(C)(C)C)c1ccc(-n2ccnc2)c(F)c1 [Compound 14, (2S,4R)-1-((S)-2-(2-((5-((3-fluoro-4-(1H-imidazol-1-yl)phenyl)(5-(3,5-dimethylisoxazol-4-yl)-2-methylphenyl)amino)n-pentyl)oxy)acetylamino)-3,3-dimethylbutyryl)-4-hydroxy-N—((S)-1-(4-(4-methylthiazol-5-yl)phenyl)ethyl)pyrrolidinyl-2-formamide]	> 2000
Cc1ccc(-c2c(C)noc2C)cc1N(CCCCCCCOCC(=O)N[C@H](C(=O)N1C[C@H](O)C[C@H]1C(=O)N[C@@H](C)c1ccc(-c2scnc2C)cc1)C(C)(C)C)c1ccc(-n2ccnc2)cc1 [Compound 8]	501 to 2000
Cc1ccc(-c2c(C)noc2C)cc1N(CCCCCOCC(=O)N[C@H](C(=O)N1C[C@H](O)C[C@H]1C(=O)N[C@@H](C)c1ccc(-c2scnc2C)cc1)C(C)(C)C)c1ccc(F)c(-n2ccnc2)c1 [Compound 16]	> 2000

The remaining lines, values ahead:

IC50 [nM]	SMILES
> 2000	CC(=O)O[C@@H]1C[C@@H](C(=O)N[C@@H](C)c2ccc(-c3scnc3C)cc2)N(C(=O)[C@@H](NC(=O)COC2CN(CCN(c3ccc(-n4ccnc4)c(Br)c3)c3cc(-c4c(C)noc4C)ccc3C)C2)C(C)(C)C)C1 [Compound 101, (3R,5S)-1-((S)-2-(2-((1-(2-((3-Bromo-4-(1H-imidazol-1-yl)phenyl)(5-(3,5-dimethylisozazol-4-yl)-2-methylphenyl)amino)ethyl)azetidin-3-yl)oxy)acetylamino)-3,3-dimethylbutyryl)-5-(((S)-1-(4-(4-methylthiazol-5-yl)phenyl)ethyl)carbamoyl)pyrrolidine-3-yl acetate]
> 2000	CC(=O)O[C@@H]1C[C@@H](C(=O)N[C@@H](C)c2ccc(-c3scnc3C)cc2)N(C(=O)[C@@H](NC(=O)COCCN2CC(CN(c3ccc(-n4ccnc4)c(Br)c3)c3cc(-c4c(C)noc4C)ccc3C)C2)C(C)(C)C)C1 [Compound 51, (3R,5S)-1-((S)-2-(2-(3-((3-bromo-4-(1H-imidazol-1-yl)phenyl) (5-(3,5-dimethylisoxazol-4-yl)-2-methylphenyl)amino)methyl)azetidine-1-yl)ethoxy)acetamido)-3,3-dimethylbutanol)-5-((S)-(4-methylthiazol-5-yl)phenyl)ethyl)carbamoyl)pyrrolidine-3-yl acetate]
101 to 500	Cc1ccc(-c2c(C)noc2C)cc1N(CCCCCOCC(=O)Nc1cccc2c1CN(C1CCC(=O)NC1=O)C2=O)c1ccc(C2(C#N)CC2)cc1 (stereo not shown) [Compound 144]
101 to 500	CC(=O)O[C@@H]1C[C@@H](C(=O)N[C@@H](C)c2ccc(-c3scnc3C)cc2)N(C(=O)[C@@H](NC(=O)COCCCCCN(c2ccc(-n3ccnn3)cc2)c2cc(-c3c(C)noc3C)ccc2C)C(C)(C)C)C1 [Compound 90, (3R,5S)-1-((S)-2-(2-((5-((4-(1H-1,2,3-triazol-1-yl)phenyl)(5-(3,5-dimethylisoxazol-4-yl)-2-methylphenyl)amino)pentyl)oxy)acetylamino)-3,3-dimethylbutyryl)-5-(((S)-1-(4-(4-methylthiazol-5-yl)phenyl)ethyl)aminoformyl)pyrrolidinyl-3-yl acetate]
501 to 2000	Cc1ccc(-c2c(C)noc2C)cc1N(CC1CCN(CCC(=O)N[C@H](C(=O)N2C[C@H](O)C[C@H]2C(=O)N[C@@H](C)c2ccc(-c3scnc3C)cc2)C(C)(C)C)CC1)c1ccc(-n2ccnc2)c(Br)c1 [Compound 100, (2S,4R)-1-((S)-2-(3-(4-(((3-Bromo-4-(1H-imidazol-1-yl)phenyl)(5-(3,5-dimethylisoxazol-4-yl)-2-methylphenyl)amino)methyl)piperidin-1-yl)propionamide)-3,3-dimethylbutyryl)-4-hydroxy-N—((S)-1-(4-(4-methylthiazol-5-yl)phenyl)ethyl)pyrrolidine-2-formamide]
101 to 500	Cc1ccc(-c2c(C)noc2C)cc1N(CCCC1CCN(c2ccc3c(c2)C(=O)N(C2CCC(=O)NC2=O)C3=O)CC1)c1ccc(C2(C#N)CC2)cc1 (stereo not shown) [Compound 30, 1-(4-((5-(3,5-Dimethylisoxazol-4-yl)-2-methylphenyl)(3-(1-(2-(2,6-dioxopiperidin-3-yl)-1,3-dioxoisoindolin-5-yl)piperidin-4-yl)propyl)amino)phenyl)cyclopropane-1-nitrile]
101 to 500	CC(=O)O[C@@H]1C[C@@H](C(=O)N[C@@H](C)c2ccc(-c3scnc3C)cc2)N(C(=O)[C@@H](NC(=O)COCCCCCN(c2ccc(-n3ccnc3C)cc2)c2cc(-c3c(C)noc3C)ccc2C)C(C)(C)C)C1 [Compound 98, (3R,5S)-1-((S)-2-(2-((5-((5-(3,5-dimethylisoxazol-4-yl)-2-methylphenyl)(4-(2-methyl-1H-imidazol-1-yl)phenyl)amino)pentyl)oxy)acetylamino)-3,3-dimethylbutyryl)-5-(((S)-1-(4-(4-methylthiazol-5-yl)phenyl)ethyl)aminoformyl)pyrrolidinyl-3-yl acetate]
> 2000	Cc1ccc(-c2c(C)noc2C)cc1N(CCCCCNc1ccc2c(c1)C(=O)N(C1CCC(=O)N(C)C1=O)C2=O)c1ccc(C2(C#N)CC2)cc1 (stereo not shown) [Compound 151, 1-(4-((5-(3,5-Dimethylisoxazol-4-yl)-2-methylphenyl)(5-((2-(1-methyl-2,6-dioxopiperidin-3)-1,3-dicarbonylisoindolin-5-yl))amino)pentyl)amino)phenylcyclopropanecarbonitrile]
< 100	Cc1ccc(-c2c(C)noc2C)cc1N(CCCCCOCC(=O)N[C@H](C(=O)N1C[C@H](O)C[C@H]1C(=O)N[C@@H](C)c1ccc(-c2scnc2C)cc1)C(C)(C)C)c1ccc(-n2ccnn2)cc1 [Compound 89, (2S,4R)-1-((S)-2-(2-((5-((4-(1H-1,2,3-triazol-1-yl)phenyl)(5-(3,5-dimethylisoxazol-4-yl)-2-methylphenyl)amino)pentyl)oxy)acetylamino)-3,3-dimethylbutyryl)-4-hydroxy-N—((S)-1-(4-(4-methylthiazol-5-yl)phenyl)ethyl)-pyrrolidinyl-2-formamide]
101 to 500	Cc1ccc(-c2c(C)noc2C)cc1N(CCC1CCN(c2ccc3c(c2)C(=O)N(C2CCC(=O)NC2=O)C3=O)CC1)c1ccc(C2(C#N)CC2)cc1 (stereo not shown) [Compound 28, 1-(4-((5-(3,5-Dimethylisoxazol-4-yl)-2-methylphenyl)(2-(1-(2-(2,6-dioxopiperidin-3-yl)-1,3-dioxoisoindolin-5-yl)piperidin-4-yl)ethyl)amino)phenyl)cyclopropane-1-carbonitrile]

same assay, conditions: LNCaP/AR cells, 6 days culture, CCK-8; read-out: LNCap/AR IC50

SMILES	IC50 [nM]
CC(=O)O[C@@H]1C[C@@H](C(=O)N[C@@H](C)c2ccc(-c3scnc3C)cc2)N(C(=O)[C@@H](NC(=O)COCCCCCN(c2ccc(-n3cnc(C)c3)c(Br)c2)c2cc(-c3c(C)noc3C)ccc2C)C(C)(C)C)C1 [Compound 52, (3R,5S)-1-((S)-2-(2-((5-((3-bromo-4-(4-methy-1H-imidazol-1-yl)phenyl)(5-(3,5-dimethylisoxazol-4-yl)-2-methylphenyl)amino)pentyl)oxy)acetamido)-3,3-dimethylbutyryl)-5-((S)-1-(4-methylthiazol-5-yl)phenyl)ethyl)carbamoyl)pyrrolidine-3-yl acetate]	101 to 500
Cc1ccc(-c2c(C)noc2C)cc1N(CCCCCOCC(=O)N[C@H](C(=O)N1C[C@H](O)C[C@H]1C(=O)N[C@@H](C)c1ccc(-c2scnc2C)cc1)C(C)(C)C)c1ccc(-n2ccnc2)cc1 [Compound 83, (2S,4R)-1-((S)-2-(2-((5-((4-(1H-imidazol-1-yl)phenyl)(5-(3,5-dimethylisoxazol-4-yl)-2-methylphenyl)amino)pentyl)oxy)acetylamino)-3,3-dimethylbutyryl)-4-hydroxy-N—((S)-1-(4-(4-methylthiazol-5-yl)phenyl)ethyl)-pyrrolidinyl-2-formamide]	< 100

same assay, conditions: LNCaP/AR, 144 h, read-out: LNCap/AR IC50

SMILES	IC50 [nM]
CC(=O)O[C@@H]1C[C@@H](C(=O)N[C@@H](C)c2ccc(-c3scnc3C)cc2)N(C(=O)[C@@H](NC(=O)COCCCCCN(c2ccc(C#N)c(C(F)(F)F)c2)c2cc(-c3c(C)noc3C)ccc2C)C(C)(C)C)C1 [Compound 4]	> 2000
CC(=O)O[C@@H]1C[C@@H](C(=O)N[C@@H](C)c2ccc(-c3scnc3C)cc2)N(C(=O)[C@@H](NC(=O)COCC#CCN(c2ccc(-n3ccnc3)cc2)c2cc(-c3c(C)noc3C)ccc2C)C(C)(C)C)C1 [Compound 46, (3R,5S)-1-((S)-2-(2-((4-((4-(1H-imidazol-1-yl)phenyl)(5-(3,5-dimethylisoxazol-4-yl)-2-methylphenyl)amino)but-2-yn-1-yl)oxy)acetamido)-3,3-dimethylbutanol)-5-((S)-1-(4-methylthiazol-5-yl)phenyl)ethyl)carbamoyl)pyrrolidine-3-yl acetate]	> 2000
CCN(c1ccc(C#N)c(Cl)c1)c1cc(-c2c(C)nn(CCCCCOCC(=O)N[C@H](C(=O)N3C[C@H](OC(C)=O)C[C@H]3C(=O)N[C@@H](C)c3ccc(-c4scnc4C)cc3)C(C)(C)C)c2C)ccc1C [Compound 81, (3R,5S)-1-((S)-2-(2-((5-(4-(3-((3-chloro-4-cyanophenyl)(ethyl)amino)-4-methylphenyl)-3,5-dimethyl-1H-pyrazol-1-yl)pentyl)oxy)acetamido)-3,3-dimethylbutyryl)-5-((S)-1-(4-methylthiazol-5-yl)phenyl)ethyl)carbamoyl)pyrrolidine-3-yl acetate]	501 to 2000
